Drawing on ChEMBL document CHEMBL3580644, “Synthesis of piperlongumine analogues and discovery of nuclear factor erythroid 2-related factor 2 (Nrf2) activators as potential neuroprotective agents” (J Med Chem, 2015), this text covers Activity for 17 compounds.

Active and inactive are the calls of the source. The calls are words filed in the database; no cut-off is given here.

A short description of series [1]: Cytotoxicity against human L02 cells assessed as reduction in cell viability at 20 uM to 100 uM incubated for 24 hrs by MTT assay. The conditions noted are these: l02, 24 h. Format: cell-based. For orientation: Formazan colour is commonly taken as a measure of viable cells.
The nature of series [2]: Cytotoxicity against rat PC12 cells assessed as reduction in cell viability at 20 uM to 100 uM incubated for 24 hrs by MTT assay. Format: cell-based. The conditions noted are these: pc-12, 24 h.
Series [3] can be described thus: Cytotoxicity against rat PC12 cells assessed as reduction in cell viability at 20 uM incubated for 24 hrs by MTT assay. Format: cell-based. The conditions noted are these: pc-12, 24 h.
Series [4] concerns PC-12. As to the kind of experiment: Cytoprotection activity against H2O2-induced cytotoxicity in rat PC12 cells assessed as cell viability at 20 uM pre-incubated for 24 hrs before H2O2 exposure for 12 hrs by MTT assay. Format: functional, cell-based.
A short description of series [5]: Cytotoxicity against rat PC12 cells assessed as reduction in cell viability at 100 uM incubated for 24 hrs by MTT assay. Format: cell-based. The conditions noted are these: pc-12, 24 h.
Series [6] is described as follows: Cytotoxicity against human L02 cells assessed as reduction in cell viability at 100 uM incubated for 24 hrs by MTT assay. Format: cell-based. To be noted: l02, 24 h.
Series [7] has as its system PC-12. Put plainly: Cytoprotection activity against 6-OHDA-induced cytotoxicity in rat PC12 cells assessed as cell viability at 20 uM pre-incubated for 24 hrs before 6-OHDA exposure for 12 hrs by MTT assay. Format: functional, cell-based.
The nature of series [8]: Antioxidant activity assessed as DPPH radical scavenging activity at 20 uM incubated for 30 mins by spectrophotometry. Format: physicochemical. The conditions noted are these: 0.5 h. For orientation: DPPH is a stable violet radical that fades when it is reduced.
The nature of series [9]: Antioxidant activity assessed as ABTS radical scavenging activity at 20 uM incubated for 30 mins by spectrophotometry. To be noted: 0.5 h. Format: physicochemical.

`COc1cc(/C=C/C(=O)N2CCC=CC2=O)cc(OC)c1OC` [PIPLARTINE]: the Activity result in series [1], in series [2] and in series [3] was “Toxic” each time.
Turning to `O=C(/C=C/c1ccccc1)N1CCCCCC1=O`, the result with PC-12 [4] and in the series on PC-12 [7] was Active. Besides, the figures for the Activity entry in [5], in series [6] and in series [3] were “Toxic”, “Toxic” and “Non-toxic”, respectively.
Turning to `COc1cc(CCC(=O)N2CCCCC2=O)cc(OC)c1OC` [TETRAHYDROPIPLARTINE], the Activity entry in series [1], in series [2] and in [3] was “Non-toxic” each time. Further, the outcome in the series with PC-12 [4] and in the series on PC-12 [7] was inactive.
As for `O=C(/C=C/c1ccc(Br)cc1)N1CCCC1=O`, the result with PC-12 [4] and in the series with PC-12 [7] was Active. Also, the Activity result in [5] was “Toxic”; in series [6], “Toxic”; in [3] it was “Non-toxic”.
Consider `O=C(/C=C/c1ccc(C(F)(F)F)cc1)N1CCCC1=O`, for which the outcome in the series with PC-12 [4] and in the series on PC-12 [7] was Active. Also, the Activity result was “Toxic” in series [5], “Toxic” in series [6] and “Non-toxic” in series [3].
Take `COc1cc(/C=C/C(=O)N2CCCCCC2=O)cc(OC)c1OC`: the Activity entry in series [1], in series [2] and in [3] was “Non-toxic” in each case. Further, the outcome with PC-12 [4] and in the series on PC-12 [7] was Active.
For the compound `O=C(/C=C/c1ccc([N+](=O)[O-])cc1)N1CCCCC1=O`, the result with PC-12 [4] and with PC-12 [7] was Active. Besides, the results for the Activity entry in series [5], in series [6] and in series [3] were “Toxic”, “Toxic” and “Non-toxic”, respectively.
With `O=C(/C=C/c1ccccc1)N1CCCCC1=O`, the outcome in the series on PC-12 [4] and in the series on PC-12 [7] was Active. In addition, the figures for the Activity entry in series [5], in series [6] and in [3] were “Toxic”, “Toxic” and “Non-toxic”, respectively.
For `O=C(/C=C/c1ccc([N+](=O)[O-])cc1)N1CCCCCC1=O`, the outcome with PC-12 [4] and with PC-12 [7] was Active. Also, the values for the Activity result in series [5], in series [6] and in [3] were “Toxic”, “Toxic” and “Non-toxic”, respectively.
In the case of `O=C(/C=C/c1ccc(C(F)(F)F)cc1)N1CCCCC1=O`, the outcome with PC-12 [4] and in the series on PC-12 [7] was Active. For the same compound, the Activity entry is listed as “Toxic” in series [5], “Toxic” in [6] and “Non-toxic” in series [3].
In the case of `O=C(/C=C/c1ccc(C(F)(F)F)cc1)N1CCCCCC1=O`, the result in the series with PC-12 [4] and in the series on PC-12 [7] was Active. In addition, the figures for the Activity result in series [5], in [6] and in series [3] were “Toxic”, “Toxic” and “Non-toxic”, respectively.
Turning to `COc1ccc(/C=C/C(=O)N2CCCC2=O)cc1OC`, the Activity result in series [1], in series [2] and in series [3] was “Non-toxic” throughout. The result with PC-12 [4] and in the series with PC-12 [7] was Active.
For `COc1ccc(/C=C/C(=O)N2CCCCC2=O)cc1`, the Activity entry in series [1], in series [2] and in [3] was “Non-toxic” in each case. Moreover, the result in the series with PC-12 [4] and in the series on PC-12 [7] was Active.
For `O=C(/C=C/c1ccccc1)N1CCCC1=O`, the outcome with PC-12 [4] and in the series on PC-12 [7] was Active. In addition, the Activity entry in [5] is given as “Toxic”; in [6] it was “Toxic”; in series [3], “Non-toxic”.
As for `COc1cc(/C=C/C(=O)N2CCCC2=O)cc(OC)c1OC`, the Activity result in [1], in [2] and in series [3] was “Non-toxic” throughout. Also, the outcome in the series on PC-12 [4] and with PC-12 [7] was Active.
Consider `O=C(/C=C/c1ccc(O)cc1)N1CCCC1=O`, for which the Activity entry in series [1] is given as “Non-toxic”; in series [2], “Non-toxic”; in series [8], “Active”; in series [3], “Non-toxic”; in series [9], “Active”. The outcome in the series on PC-12 [4] and with PC-12 [7] was Active.
In the case of `O=C(/C=C/c1ccc(Br)cc1)N1CCCCC1=O`, the outcome with PC-12 [4] and with PC-12 [7] was Active. Further, the Activity result in series [5] was “Toxic”; in series [6], “Toxic”; in series [3], “Non-toxic”.
